test system: THP-1 cells; assay: THP-1 Soluble Protein Assay (LPS-stimulated; ELISA of TNF-a, TNF-R p75/80, TNF-R p55/60, IL-8); type: cell-based, human; details: Homo sapiens, THP-1, 3 µM; read-out: THP % Inhibition @ 3µM

Row | Structure (SMILES) | inhibition at 3 µM
1 | CC#CCOc1ccc(S(=O)(=O)N2CCCSC(C)(C)[C@@H]2C(=O)NO)cc1 [Example 173] | 80%
2 | CC#CCOc1ccc(S(=O)(=O)N2CCCSC[C@@H]2C(=O)NO)cc1 [Example 174] | 80%
3 | CC#CCOc1ccc(S(=O)(=O)N2CCCS(=O)(=O)C[C@@H]2C(=O)NO)cc1 [Example 175] | 83%

same assay, conditions: Homo sapiens, THP-1, read-out: THP % inhibition @ 3 µM, 3 µM

Row | Structure (SMILES) | inhibition at 3 µM
4 | CC#CCOc1ccc(S(=O)(=O)N(C)C(C(=O)NO)C(C)(C)SCCn2ccnc2)cc1 (stereo not drawn) [Example 144, 2-({[4-(2-Butynyloxy)phenyl]sulfonyl)(methyl)amino]-N-hydroxy-3-methyl-3-{[2-(1H-imidazol-1-yl)ethyl]sulfanyl}butanamide] | 89%
5 | CC#CCOc1ccc(S(=O)(=O)N(C)C(C(=O)NO)C(C)(C)SCCCN2CCOCC2)cc1 (stereo not drawn) [Example 146] | 84%
6 | CC#CCOc1ccc(S(=O)(=O)N(C)C(C(=O)NO)C(C)(C)SCCCN2CCN(C)CC2)cc1 (stereo not drawn) [Example 147, 2-({[4-(2-Butynyloxy)phenyl]sulfonyl)(methyl)amino]-N-hydroxy-3-methyl-3-{[2(4-methyl-1-ethyl-1-piperazinyl)propyl]sulfanyl}butanamide] | 89%
7 | CC#CCOc1ccc(S(=O)(=O)N(C)C(C(=O)NO)C(C)(C)SC)cc1 (stereo not drawn) [Example 149, 2-[(4-But-2-ynyloxy-benenesulfonyl)-methyl-amino]-N-hydroxy-3-methyl-3-methylsulfanyl-butyramide] | 88%
8 | CC#CCOc1ccc(S(=O)(=O)N(C)C(C(=O)NO)C(C)(C)SCCC)cc1 (stereo not drawn) [Example 151, 2-[(4-But-2-ynyloxy-benenesulfonyl)-methyl-amino]-N-hydroxy-3-methyl-3-propylsulfanyl-butyramide] | 82%
9 | CC#CCOc1ccc(S(=O)(=O)N(C)C(C(=O)NO)C(C)(C)SCc2ccccc2)cc1 (stereo not drawn) [Example 153, 2-[(4-But-2-ynyloxy-benenesulfonyl)-methyl-amino]-N-hydroxy-3-methyl-3-benzylsulfanyl-butyramide] | 46%
10 | CC#CCOc1ccc(S(=O)(=O)N(C)[C@H](CSC)C(=O)NO)cc1 [Example 154] | 90%
11 | CC#CCOc1ccc(S(=O)(=O)N(Cc2cccnc2)C(CSCc2ccccc2)C(=O)NO)cc1 (stereo not drawn) [Example 157, 3-(Benzylthio)-2-[[[4-(2-butynyloxy)phenyl]sulfonyl]pyridin-3-ylmethylamino]-N-hydroxypropanamide] | 79%
12 | CC#CCOc1ccc(S(=O)(=O)NC(C(=O)NO)c2ccc(O)cc2)cc1 (stereo not drawn) [Example 176, 2-({[4-(2-Butynyloxy)phenyl]sulfonyl}amino)-N-hydroxy-2-(4-hydroxyphenyl)acetamide] | 89%
13 | C#CCOc1ccc(C(NS(=O)(=O)c2ccc(OCC#CC)cc2)C(=O)NO)cc1 (stereo not drawn) [Example 177, 2-({[4-(2-Butynyloxy)phenyl]sulfonyl}amino)-N-hydroxy-2-[4-(2-propynyloxy)phenyl]acetamide] | 64%
14 | CC#CCOc1ccc(S(=O)(=O)N(C)C(C(=O)NO)c2ccc(OC)cc2)cc1 (stereo not drawn) [Example 178, 2-[{[4-(2-Butynyloxy)phenyl]sulfonyl}(methyl)amino]-N-hydroxy-2-(4-methoxyphenyl)acetamide] | 91%
15 | CC#CCOc1ccc(S(=O)(=O)N(C)C(C(=O)NO)c2ccc(OCCN3CCOCC3)cc2)cc1 (stereo not drawn) [Example 179, 2-[{[4-(2-Butynyloxy)phenyl]sulfonyl}(methyl)amino]-N-hydroxy-2-{4-[2-(4-morpholinyl)ethoxy]phenyl}acetamide] | 97%
16 | CC#CCOc1ccc(S(=O)(=O)N(C)C(C(=O)NO)c2ccc(OCCNC(=O)OC(C)(C)C)cc2)cc1 (stereo not drawn) [Example 180, tert-Butyl 2-{4-[1-[{[4-(2-butynyloxy)phenyl]sulfonyl}(methyl)amino]-2-(hydroxyamino)-2-oxoethyl]phenoxy}ethylcarbamate] | 89%
17 | CC#CCOc1ccc(S(=O)(=O)N(C)C(C(=O)NO)c2ccc(OCCN)cc2)cc1 (stereo not drawn) [Example 181, 2-[4-(2-Aminoethoxy)phenyl]-2-[{[4-(2-butynyloxy)phenyl]sulfonyl}(methyl)amino]-N-hydroxyacetamide] | 92%
18 | CC#CCOc1ccc(S(=O)(=O)N(C)C(C(=O)NO)c2ccc(OCCN(C)C)cc2)cc1 (stereo not drawn) [Example 182, 2-[{[4-(2-Butynyloxy)phenyl]sulfonyl}(methyl)amino]-2-{4-[2-(dimethylamino)ethoxy]phenyl}-N-hydroxyacetamide] | 92%
19 | CC#CCOc1ccc(S(=O)(=O)N(C)C(C(=O)NO)c2ccc(OCCN3CCCC3)cc2)cc1 (stereo not drawn) [Example 183, 2-[{[4-(2-Butynyloxy)phenyl]sulfonyl}(methyl)amino]-N-hydroxy-2-{4-[2-(1-pyrrolidinyl)ethoxy]phenyl}acetamide] | 93%
20 | CC#CCOc1ccc(S(=O)(=O)N(C)C(C(=O)NO)c2ccc(OCCN3CCCC3=O)cc2)cc1 (stereo not drawn) [Example 184, 2-[{[4-(2-Butynyloxy)phenyl]sulfonyl}(methyl)amino]-N-hydroxy-2-{4-[2-(2-oxo-1-pyrrolidinyl)ethoxy]phenyl}acetamide] | 94%

Row | Structure (SMILES) | inhibition at 3 µM
21 | CC#CCOc1ccc(S(=O)(=O)N(C)C(C(=O)NO)c2ccc(OCCN3CCN(C(=O)OC(C)(C)C)CC3)cc2)cc1 (stereo not drawn) [Example 185, tert-butyl 4-(2-{4-[1-[{[4-(2-butynyloxy)phenyl]sulfonyl}(methyl)amino]-2-(hydroxyamino)-2-oxoethyl]phenoxy}ethyl)-1-piperazinecarboxylate] | 89%
22 | CC#CCOc1ccc(S(=O)(=O)N(C)C(C(=O)NO)c2ccc(OCCN3CCNCC3)cc2)cc1 (stereo not drawn) [Example 186, 2-[{[4-(2-butynyloxy)phenyl]sulfonyl}(methyl)amino]-N-hydroxy-2-{4-[2-(1-piperazinyl)ethoxy]phenyl}acetamide] | 93%
23 | CC#CCOc1ccc(S(=O)(=O)N(C)C(C(=O)NO)c2ccc(OCCCNC(=O)OC(C)(C)C)cc2)cc1 (stereo not drawn) [Example 187, tert-Butyl 3-{4-[1-[{[4-(2-butynyloxy)phenyl]sulfonyl}(methyl)amino]-2-(hydroxyamino)-2-oxoethyl]phenoxy}propylcarbamate] | 91%
24 | CC#CCOc1ccc(S(=O)(=O)N(C)C(C(=O)NO)c2ccc(OCCCN)cc2)cc1 (stereo not drawn) [Example 188, 2-[4-(3-Aminopropoxy)phenyl]-2-[{[4-(2-butynyloxy)phenyl]sulfonyl}(methyl)amino]-N-hydroxyacetamide] | 94%
25 | CC#CCOc1ccc(S(=O)(=O)N(C)[C@@H](C(=O)NO)c2ccc(O[C@H]3CCN(C(=O)OC(C)(C)C)C3)cc2)cc1 [Example 189, tert-Butyl (3S)-3-{4-[(1R)-1-[{[4-(2-butynyloxy)phenyl]sulfonyl}(methyl)amino]-2-(hydroxyamino)-2-oxoethyl]phenoxy}-1-pyrrolidinecarboxylate] | 92%
26 | CC#CCOc1ccc(S(=O)(=O)N(C)[C@@H](C(=O)NO)c2ccc(O[C@H]3CCNC3)cc2)cc1 [Example 190, (2R)-2-[{[4-(2-Butynyloxy)phenyl]sulfonyl}(methyl)amino]-N-hydroxy-2-{4-[(3S)-pyrrolidinyloxy]phenyl}ethanamide] | 94%
27 | CC#CCOc1ccc(S(=O)(=O)N(C)C(C(=O)NO)c2ccc(OCCN(C)C(=O)OC(C)(C)C)cc2)cc1 (stereo not drawn) [Example 191] | 90%
28 | CC#CCOc1ccc(S(=O)(=O)N(C)C(C(=O)NO)c2ccc(OCCNC)cc2)cc1 (stereo not drawn) [Example 192, 2-({[4-(2-Butynyloxy)phenyl]sulfonyl}(methyl)amino)-N-hydroxy-2-{4-[2-(methylamino)ethoxy]phenyl}acetamide] | 95%
29 | CC#CCOc1ccc(S(=O)(=O)N(C)C(C(=O)NO)c2ccc(OCCCNC(=O)OCC)cc2)cc1 (stereo not drawn) [Example 193, Ethyl 3-{4-[1-[{[4-(2-butynyloxy)phenyl]sulfonyl}(methyl)amino]-2-(hydroxyamino)-2-oxoethyl]phenoxy}propylcarbamate] | 91%
30 | CC#CCOc1ccc(S(=O)(=O)N(C)C(C(=O)NO)c2ccc(OCCCNC(C)=O)cc2)cc1 (stereo not drawn) [Example 194, 2-{4-[3-(Acetylamino)propoxy]phenyl}-2-[{[4-(2-butynyloxy)phenyl]sulfonyl}(methyl)amino]-N-hydroxyacetamide] | 94%
31 | CC#CCOc1ccc(S(=O)(=O)N(C)C(C(=O)NO)c2ccc(OCCCNC(=O)OCCCC)cc2)cc1 (stereo not drawn) [Example 195, Butyl 3-{4-[1-[{[4-(2-butynyloxy)phenyl]sulfonyl}(methyl)amino]-2-(hydroxyamino)-2-oxoethyl]phenoxy}propylcarbamate] | 90%
32 | CC#CCOc1ccc(S(=O)(=O)N(C)C(C(=O)NO)c2ccc(OCCCNS(C)(=O)=O)cc2)cc1 (stereo not drawn) [Example 197, 2-[{[4-(2-Butynyloxy)phenyl]sulfonyl}(methyl)amino]-N-hydroxy-2-(4-{3-[(methylsulfonyl)amino]propoxy}phenyl)acetamide] | 94%
33 | CC#CCOc1ccc(S(=O)(=O)N(C)C(C(=O)NO)c2ccc(OCCCNC(=O)Nc3ccccc3)cc2)cc1 (stereo not drawn) [Example 198, 2-(4-{3-[(Anilinocarbonyl)amino]propoxy}phenyl)-2-[{[4-(2-butynyloxy)phenyl]sulfonyl}(methyl)amino]-N-hydroxyacetamide] | 92%
34 | CC#CCOc1ccc(S(=O)(=O)N[C@@H](C(=O)NO)c2ccc(OCCNC(=O)OC(C)(C)C)cc2)cc1 [Example 199, tert-Butyl 2-{4-[(1R)-1-({[4-(2-butynyloxy)phenyl]sulfonyl}amino)-2-(hydroxyamino)-2-oxoethyl]phenoxy}ethylcarbamate] | 84%
35 | CC#CCOc1ccc(S(=O)(=O)N[C@@H](C(=O)NO)c2ccc(OCCN)cc2)cc1 [Example 200, (2R)-2-[4-(2-Aminoethoxy)phenyl]-2-({[4-(2-butynyloxy)phenyl]sulfonyl}amino)-N-hydroxyethanamide] | 78%
36 | CC#CCOc1ccc(S(=O)(=O)N[C@@H](C(=O)NO)c2ccc(OCCNC(C)=O)cc2)cc1 [Example 201, (2R)-2-{4-[2-(Acetylamino)ethoxy]phenyl}-2-({[4-(2-butynyloxy)phenyl]sulfonyl}amino)-N-hydroxyethanamide] | 77%

From patent EP1144368B1, “ACETYLENIC ALPHA-AMINO ACID-BASED SULFONAMIDE HYDROXAMIC ACID TACE INHIBITORS” (priority 1999, dated 2000)
